Experimental data reported in publication PMC9533837 (Antiviral Research, 2003).
Converted amounts (≈) assume the structure as drawn.

Columns and labels:
VAR isolate Rumbec = assay: organism not typed; format: cell-based, variola; details: Vero, read-out: IC50, VAR isolate Rumbec
VAR isolate Heidelberg = assay: organism not typed; format: cell-based, variola; details: Vero, read-out: IC50, VAR isolate Heidelberg
VAR isolate Iran 2602 = assay: organism not typed; format: cell-based, variola; details: Vero, read-out: IC50, VAR isolate Iran 2602
Vero cells = details: African green monkey
VAR isolate Kali-Muthu = assay: organism not typed; format: cell-based, variola; details: Vero, read-out: IC50, VAR isolate Kali-Muthu
VAR isolate Butler = assay: organism not typed; format: cell-based, variola minor; details: Vero, read-out: IC50, VAR isolate Butler
VAC = details: cited from earlier work
VAR isolate Juba = assay: organism not typed; format: cell-based, variola; details: Vero, read-out: IC50, VAR isolate Juba
VAR isolate V70-46 = assay: organism not typed; format: cell-based, variola; details: Vero, read-out: IC50, VAR isolate V70-46
VAR isolate 102 = assay: organism not typed; format: cell-based, variola; details: Vero, read-out: IC50, VAR isolate 102
[1] = system: VAC, including recombinant VAC; details: mouse, in vivo; cited from earlier work

| SMILES | IC50 (VAR isolate Rumbec) | IC50 (VAR isolate Heidelberg) | IC50 (VAR isolate Iran 2602) | Cytotoxicity TC50 Vero (Vero cells) | IC50 (VAR isolate Kali-Muthu) | IC50 (VAR isolate Butler) | activity in vivo, VAC mouse model (VAC) | IC50 (VAR isolate Juba) | IC50 (VAR isolate V70-46) | IC50 (VAR isolate 102) | activity in murine tailpox models [1] |
| --- | --- | --- | --- | --- | --- | --- | --- | --- | --- | --- | --- |
| Nc1ccn(C[C@@H](CO)OCP(=O)(O)O)c(=O)n1 [Cidofovir, 1-[(S)-3-hydroxy-2-(phosphonomethoxy)-propyl]cytosine] | 10 µg/mL (≈ 35.8 µM) | 15 µg/mL (≈ 53.7 µM) | 8 µg/mL (≈ 28.7 µM) | >100 µg/mL | 11 µg/mL (≈ 39.4 µM) | 6 µg/mL (≈ 21.5 µM) | active in vivo | 14 µg/mL (≈ 50.1 µM) | 7 µg/mL (≈ 25.1 µM) | 23 µg/mL (≈ 82.4 µM) |  |
| NC(=O)c1ncn([C@@H]2O[C@H](CO)[C@@H](O)[C@H]2O)n1 [Ribavirin] |  | 43 µg/mL (≈ 176 µM) | 11 µg/mL (≈ 45 µM) | >100 µg/mL |  | 28 µg/mL (≈ 115 µM) |  |  | 45 µg/mL (≈ 184 µM) | 110 µg/mL (≈ 450 µM) | active |
